In ChEMBL document CHEMBL4806968, “Hipk inhibitors and methods of use thereof” (2020) one finds inhibition data, which are given here for 9 compounds.

Test [1] concerns the target T1, Muscle, skeletal receptor tyrosine-protein kinase (Homo sapiens) (UniProt O15146).
T1 sequence (whole entry): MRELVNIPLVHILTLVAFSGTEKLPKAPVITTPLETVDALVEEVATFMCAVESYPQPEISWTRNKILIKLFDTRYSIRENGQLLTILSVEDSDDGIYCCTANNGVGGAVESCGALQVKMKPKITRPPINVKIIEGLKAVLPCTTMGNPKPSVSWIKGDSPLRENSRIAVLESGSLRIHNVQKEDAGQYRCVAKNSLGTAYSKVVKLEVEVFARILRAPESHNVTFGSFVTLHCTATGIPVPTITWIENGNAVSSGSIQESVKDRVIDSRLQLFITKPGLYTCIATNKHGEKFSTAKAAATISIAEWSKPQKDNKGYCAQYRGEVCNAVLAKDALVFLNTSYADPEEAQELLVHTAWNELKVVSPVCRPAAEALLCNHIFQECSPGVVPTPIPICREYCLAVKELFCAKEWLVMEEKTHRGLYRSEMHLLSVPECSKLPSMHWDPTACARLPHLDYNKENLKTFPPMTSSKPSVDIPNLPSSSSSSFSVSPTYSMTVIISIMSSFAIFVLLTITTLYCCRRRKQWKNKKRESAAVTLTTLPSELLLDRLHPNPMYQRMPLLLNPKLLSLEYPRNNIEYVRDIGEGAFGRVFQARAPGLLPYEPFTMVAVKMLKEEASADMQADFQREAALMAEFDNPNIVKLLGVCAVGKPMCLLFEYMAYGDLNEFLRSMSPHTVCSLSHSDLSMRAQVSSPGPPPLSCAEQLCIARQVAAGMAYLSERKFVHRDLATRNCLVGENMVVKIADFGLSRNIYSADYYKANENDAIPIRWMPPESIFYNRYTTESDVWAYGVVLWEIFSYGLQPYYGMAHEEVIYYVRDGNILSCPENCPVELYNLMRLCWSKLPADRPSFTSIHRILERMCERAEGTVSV
Nature of the test: Inhibition of MUSK (unknown origin) at 0.5 uM relative to control.

Test [2] has as its target BDNF/NT-3 growth factors receptor (Homo sapiens) (UniProt Q16620). Nature of the test: Inhibition of TRKB (unknown origin) at 0.5 uM relative to control.
Test [3] has as its target T2, Ephrin type-B receptor 2 (Homo sapiens) (UniProt P29323).
T2 sequence (whole entry): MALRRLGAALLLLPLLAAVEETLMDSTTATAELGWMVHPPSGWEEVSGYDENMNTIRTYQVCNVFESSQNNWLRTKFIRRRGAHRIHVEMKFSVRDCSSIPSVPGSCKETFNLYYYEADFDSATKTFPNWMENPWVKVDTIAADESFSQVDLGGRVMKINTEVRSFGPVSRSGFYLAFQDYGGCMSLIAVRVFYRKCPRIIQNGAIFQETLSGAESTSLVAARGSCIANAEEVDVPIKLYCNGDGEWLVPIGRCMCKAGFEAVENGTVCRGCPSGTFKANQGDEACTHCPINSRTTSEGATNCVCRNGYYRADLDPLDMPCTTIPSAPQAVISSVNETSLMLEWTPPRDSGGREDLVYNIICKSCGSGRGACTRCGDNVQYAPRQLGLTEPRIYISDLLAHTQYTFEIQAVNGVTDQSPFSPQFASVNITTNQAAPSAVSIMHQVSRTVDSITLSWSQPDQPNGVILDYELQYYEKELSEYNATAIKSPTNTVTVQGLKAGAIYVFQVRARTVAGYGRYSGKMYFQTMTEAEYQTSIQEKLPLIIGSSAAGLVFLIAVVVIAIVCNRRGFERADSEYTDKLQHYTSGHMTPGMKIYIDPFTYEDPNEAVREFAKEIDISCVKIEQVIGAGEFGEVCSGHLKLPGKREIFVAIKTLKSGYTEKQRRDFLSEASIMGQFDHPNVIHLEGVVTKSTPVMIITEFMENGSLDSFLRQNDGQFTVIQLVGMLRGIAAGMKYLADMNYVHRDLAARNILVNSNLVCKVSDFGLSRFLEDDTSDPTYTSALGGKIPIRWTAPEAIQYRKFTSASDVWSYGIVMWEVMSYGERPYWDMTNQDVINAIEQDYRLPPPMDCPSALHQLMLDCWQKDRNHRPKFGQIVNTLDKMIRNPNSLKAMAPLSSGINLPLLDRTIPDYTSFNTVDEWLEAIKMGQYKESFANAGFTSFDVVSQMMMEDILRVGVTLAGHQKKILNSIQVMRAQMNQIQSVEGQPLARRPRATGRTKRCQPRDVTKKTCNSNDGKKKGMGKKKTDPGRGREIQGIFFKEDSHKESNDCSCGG
Nature of the test: Inhibition of EPHB2 (unknown origin) at 0.5 uM relative to control.

The target of test [4] is Serine/threonine-protein kinase 10 (Homo sapiens) (UniProt O94804). Kind of test: Inhibition of LOK (unknown origin) at 0.5 uM relative to control.
Chain of Serine/threonine-protein kinase 10 (Homo sapiens) (O94804 whole entry, looked up): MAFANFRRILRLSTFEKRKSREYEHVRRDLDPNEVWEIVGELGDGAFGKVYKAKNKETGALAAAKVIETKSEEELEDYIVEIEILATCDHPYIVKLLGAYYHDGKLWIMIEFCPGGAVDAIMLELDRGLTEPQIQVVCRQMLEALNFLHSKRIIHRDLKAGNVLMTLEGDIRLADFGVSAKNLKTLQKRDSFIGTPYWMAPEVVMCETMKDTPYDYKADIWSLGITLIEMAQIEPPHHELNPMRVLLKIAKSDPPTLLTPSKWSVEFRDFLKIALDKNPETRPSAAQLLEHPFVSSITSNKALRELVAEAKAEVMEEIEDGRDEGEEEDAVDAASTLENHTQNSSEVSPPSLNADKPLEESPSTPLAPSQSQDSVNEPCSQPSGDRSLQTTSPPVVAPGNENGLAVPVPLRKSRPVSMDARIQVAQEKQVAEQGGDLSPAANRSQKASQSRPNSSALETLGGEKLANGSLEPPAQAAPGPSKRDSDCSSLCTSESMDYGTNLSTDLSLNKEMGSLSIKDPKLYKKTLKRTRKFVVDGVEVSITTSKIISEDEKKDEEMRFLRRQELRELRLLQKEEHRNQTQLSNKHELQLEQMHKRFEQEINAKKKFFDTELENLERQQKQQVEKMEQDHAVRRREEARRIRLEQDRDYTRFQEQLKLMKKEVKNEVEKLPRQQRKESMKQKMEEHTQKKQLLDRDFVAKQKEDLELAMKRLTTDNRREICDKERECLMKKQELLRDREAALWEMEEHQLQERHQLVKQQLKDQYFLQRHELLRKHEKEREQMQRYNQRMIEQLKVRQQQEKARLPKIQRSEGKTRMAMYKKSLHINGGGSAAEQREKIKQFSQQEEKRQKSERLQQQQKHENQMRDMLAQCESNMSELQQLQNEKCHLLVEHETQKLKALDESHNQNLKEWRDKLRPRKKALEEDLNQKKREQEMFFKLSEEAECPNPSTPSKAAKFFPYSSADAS
Test [5] has as its target T3, Ephrin type-A receptor 8 (Homo sapiens) (UniProt P29322).
T3 sequence (whole entry): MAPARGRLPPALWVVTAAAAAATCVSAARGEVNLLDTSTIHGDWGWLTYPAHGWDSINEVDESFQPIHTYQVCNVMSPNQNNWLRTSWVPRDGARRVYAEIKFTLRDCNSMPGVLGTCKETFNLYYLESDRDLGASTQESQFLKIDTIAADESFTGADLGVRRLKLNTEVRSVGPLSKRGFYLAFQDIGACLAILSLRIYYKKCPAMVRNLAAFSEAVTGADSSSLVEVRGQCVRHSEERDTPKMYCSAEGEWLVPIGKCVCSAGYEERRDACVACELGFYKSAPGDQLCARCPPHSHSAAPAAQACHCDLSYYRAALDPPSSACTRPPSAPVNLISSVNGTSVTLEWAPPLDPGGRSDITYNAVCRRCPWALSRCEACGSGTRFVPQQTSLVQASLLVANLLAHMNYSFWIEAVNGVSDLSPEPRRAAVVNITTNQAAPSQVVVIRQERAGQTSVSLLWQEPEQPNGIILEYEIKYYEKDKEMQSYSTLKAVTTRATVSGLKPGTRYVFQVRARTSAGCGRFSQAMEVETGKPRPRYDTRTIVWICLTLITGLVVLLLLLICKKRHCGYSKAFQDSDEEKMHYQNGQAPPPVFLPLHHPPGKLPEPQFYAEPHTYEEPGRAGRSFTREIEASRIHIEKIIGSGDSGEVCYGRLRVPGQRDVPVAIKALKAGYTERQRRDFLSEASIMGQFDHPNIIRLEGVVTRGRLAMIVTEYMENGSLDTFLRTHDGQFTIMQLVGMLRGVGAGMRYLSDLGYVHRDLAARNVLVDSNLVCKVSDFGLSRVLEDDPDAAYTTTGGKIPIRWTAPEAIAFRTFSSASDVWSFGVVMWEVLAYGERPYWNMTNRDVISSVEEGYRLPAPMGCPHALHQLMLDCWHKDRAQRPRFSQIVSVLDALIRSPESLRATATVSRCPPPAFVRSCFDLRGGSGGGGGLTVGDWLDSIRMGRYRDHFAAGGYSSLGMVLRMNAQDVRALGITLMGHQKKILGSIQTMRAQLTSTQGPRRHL
Kind of test: Inhibition of EPH-A8 (unknown origin) at 0.5 uM relative to control.

Chain of BDNF/NT-3 growth factors receptor (Homo sapiens) (Q16620 32-822 limits assumed): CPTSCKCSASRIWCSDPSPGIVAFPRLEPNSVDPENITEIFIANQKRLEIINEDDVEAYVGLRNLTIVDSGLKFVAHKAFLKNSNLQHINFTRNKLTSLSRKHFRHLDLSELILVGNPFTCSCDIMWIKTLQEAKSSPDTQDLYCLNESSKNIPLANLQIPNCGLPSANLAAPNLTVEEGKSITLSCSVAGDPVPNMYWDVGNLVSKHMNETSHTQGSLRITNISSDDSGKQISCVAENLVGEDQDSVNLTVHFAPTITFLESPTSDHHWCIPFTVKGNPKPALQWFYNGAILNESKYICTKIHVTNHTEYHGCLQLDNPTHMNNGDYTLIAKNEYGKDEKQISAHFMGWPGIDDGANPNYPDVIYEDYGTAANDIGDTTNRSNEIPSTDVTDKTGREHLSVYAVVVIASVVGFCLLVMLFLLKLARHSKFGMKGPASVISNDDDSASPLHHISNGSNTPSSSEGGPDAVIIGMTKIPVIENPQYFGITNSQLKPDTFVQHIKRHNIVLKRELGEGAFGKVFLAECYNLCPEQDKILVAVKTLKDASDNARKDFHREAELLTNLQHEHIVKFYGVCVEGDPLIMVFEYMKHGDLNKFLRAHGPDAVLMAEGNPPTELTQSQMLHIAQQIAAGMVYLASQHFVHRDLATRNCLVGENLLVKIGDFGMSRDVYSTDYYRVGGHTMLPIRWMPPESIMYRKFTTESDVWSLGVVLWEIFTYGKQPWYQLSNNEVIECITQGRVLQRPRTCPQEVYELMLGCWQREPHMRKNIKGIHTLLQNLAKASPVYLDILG

Turning to `CNC(=O)c1cc(Oc2ccc(NC(=O)c3n[nH]nc3-c3ccc(F)cc3)cc2)ccn1`, the inhibition worked out at 25% in test [1], 40% in test [2], 35% in test [3] and 26% in test [4].

For the compound `CNC(=O)c1cc(Oc2ccc(NC(=O)c3nc(SC)n(CCN(C)C)c3-c3ccc(F)cc3)cc2)ccn1`, the inhibition in test [1] came out at 29%; in test [2], 51%; in test [4], 47%; in test [5], 57%.

Regarding `CNC(=O)c1cc(Oc2ccc(NC(=O)c3nc(SC)oc3-c3ccc(F)cc3)cc2)ccn1`, the figures for the inhibition in test [2], in test [3] and in test [4] were 40%, 48% and 66%, respectively.

Turning to `CNC(=O)c1cc(Oc2ccc(NC(=O)c3nc(SC)oc3-c3ccc(F)cc3)cc2F)ccn1`, the inhibition was 36% in test [2], 39% in test [3], 55% in test [4] and 42% in test [5].

For `CNC(=O)c1cc(Oc2ccc(NC(=O)c3nc(S(C)(=O)=O)sc3-c3ccc(F)cc3)cc2)ccn1`, the inhibition in test [1] is 70%; in test [3], 27%.

With `CSc1nc(C(=O)Nc2ccc(Oc3cc4cnn(C)c4cc3Br)cc2)c(-c2ccc(F)cc2)o1`, the inhibition is 36% in test [4] and 25% in test [5].

On to `CNC(=O)c1cc(Oc2ccc(NC(=O)c3nc(NC)sc3-c3ccc(F)cc3)cc2)ccn1`, for which the inhibition in test [1] came out at 51%; in test [2], 71%; in test [3], 51%; in test [4], 50%; in test [5], 58%.

Regarding `CNC(=O)c1cc(Oc2ccc(NC(=O)c3nc(C(F)(F)F)sc3-c3ccc(F)cc3)cc2)ccn1`, the inhibition in test [1] turned out to be 34%; in test [4] it was 58%; in test [5], 50%.

For the compound `CNC(=O)c1cc(Oc2ccc(NC(=O)c3nc(SC)[nH]c3-c3ccc(F)cc3)cc2)ccn1`, the inhibition in test [1] worked out at 97%; in test [2], 83%; in test [3], 93%; in test [4] it was 93%; in test [5], 96%.
